Data from patent US20260021061A1, “ARIADNE AND ANALOGS FOR THE TREATMENT OF NEUROLOGICAL AND NEUROMUSCLAR DISORDERS” (priority 2022, published 2026).

What was measured:
5-HT2B = 5-HT2B (Homo sapiens, UniProt P41595); assay: Calcium flux assay; assay type: cell-based; conditions: read-out: Emax relative to 5-HT, calcium flux
Method: Therefore, an orthogonal assay measuring calcium flux was also performed for the 5-HT2 receptors (Klein et al., 2020).

mice [1] = assay: Elevated plus maze (EPM); assay type: in vivo, mouse; conditions: 30 minutes and 4 hours post single s.c. injection
Method: (§1) FIGS. 7A-D Effect of Ariadne in behavioral conflict paradigms. (a) Survival plot of effect of (R)-Ariadne (10 mg/kg) on latency to feed in the novelty suppressed feeding (NSF) test 7 days post a single drug administration. (b) Effect of 6 mg/kg and 10 mg/kg (R)-Ariadne on latency to feed in the novelty suppressed feeding (NSF) test 7 days post a single drug administration. (c) Effect of (R)-Ariadne and (±)-DOPR on the time spent in the open vs closed arms and (d) corresponding arm entries 30 minutes and 4 hours post a single subcutaneous injection.

mice [2] = assay: Novelty suppressed feeding (NSF); assay type: in vivo, mouse; conditions: 7 days post-drug administration; 10 mg/kg
Method: as §1

[3] = test system: auxilin knockout (KO) mice; assay: Hind limb clasping in auxilin KO mouse model of Parkinson's Disease; assay type: in vivo; conditions: Aux-KO mice; 10 mg/kg intraperitoneal; 15 to 30 minutes after treatment
From the text: R-Ariadne ameliorates motor abnormalities in a mouse model of Parkinson's Disease. In the 1978 patent from the Bristol Laboratories, the inventors noted complete remission of Parkinson's symptoms in two patients (Partyka el al., U.S. Pat. No. 4,105,695, 1978). To address and examine these claims via reverse translation in mice, we used a novel model of PD based on auxilin knockout (KO) mice (Vidyadhara et al., 2022). Auxilin is a clathrin uncoating protein that participates in clathrin mediated endocytosis of synaptic vesicles (SV), enabling SV recycling and neurotransmission (Vidyadhara et al., 2022). Loss-of-function mutations in auxilin (DNAJC6/PARK19) cause PD. Auxilin KO mice display cardinal features of PD such as progressive motor deficits, nigral dopaminergic neuronal loss, α-synuclein pathology, and neuroinflammation. 9-12 month old Aux-KO mice were previously shown to respond to L-DOPA treatment, which ameliorated PD-like motor abnormalities (Vidyadhara et al., 2022). […] The balance beam test evaluates fine motor skills such as ability to walk on a raised narrow beam to reach a safety box, measured as a number of runs/minute and time taken to cross the beam (FIGS. 9-10). […]

[4] = test system: auxilin knockout (KO) mice; assay: Open field test in auxilin KO mouse model of Parkinson's Disease; assay type: in vivo; conditions: Aux-KO mice; 10 mg/kg intraperitoneal; confounded by learning effects
[5] = biological target: T1, Cholinesterase, Acetyl, ACES (Homo sapiens, UniProt P22303); assay: SafetyScreen44 104010; assay type: biochemical; conditions: 10 μM; substrate Acetylthiocholine; recombinant
T1 construct: Eurofins-Panlabs (contract screen) 104010
T1 sequence (P22303 32-614): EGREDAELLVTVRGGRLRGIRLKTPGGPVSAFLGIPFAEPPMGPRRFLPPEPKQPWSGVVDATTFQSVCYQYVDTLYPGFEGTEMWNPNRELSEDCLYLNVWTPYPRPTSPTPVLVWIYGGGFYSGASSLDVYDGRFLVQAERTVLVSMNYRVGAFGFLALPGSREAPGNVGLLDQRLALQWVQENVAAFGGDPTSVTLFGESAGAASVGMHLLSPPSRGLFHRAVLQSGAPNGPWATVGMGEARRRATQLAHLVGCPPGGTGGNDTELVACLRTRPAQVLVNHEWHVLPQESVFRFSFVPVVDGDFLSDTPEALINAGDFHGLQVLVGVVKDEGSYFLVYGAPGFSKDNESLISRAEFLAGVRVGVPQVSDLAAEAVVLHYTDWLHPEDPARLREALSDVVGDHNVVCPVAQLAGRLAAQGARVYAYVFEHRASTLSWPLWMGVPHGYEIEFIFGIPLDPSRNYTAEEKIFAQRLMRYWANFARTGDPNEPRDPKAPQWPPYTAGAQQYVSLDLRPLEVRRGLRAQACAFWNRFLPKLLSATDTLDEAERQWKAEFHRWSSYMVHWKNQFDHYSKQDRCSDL
Method: (§2) A broad screen of 44 molecular targets (SafetyScreen44, Eurofins-Panlabs) for Ariadne were performed, which includes G protein-coupled receptors, steroid nuclear receptors, ion channels, neurotransmitter transporters, and metabolic and signaling enzymes. Only two molecular targets, 5-HT2A and 5-HT2B receptors, emerged above the positive hit threshold, defined as 50% displacement of standard radioligands by 10 uM concentration of Ariadne (FIG. 1b, and Table 1).
(§3) For species, “H”=human, “R”=rat. Test compound screened at all targets at concentration of 10 μM.

Adrenergic alpha1A = biological target: T2, Adrenergic alpha1A (Homo sapiens, UniProt P35348); assay: SafetyScreen44 203110; assay type: binding; conditions: 10 μM; [3H]Prazosin; recombinant
T2 construct: Eurofins-Panlabs (contract screen) 203110
T2 sequence (P35348 whole entry): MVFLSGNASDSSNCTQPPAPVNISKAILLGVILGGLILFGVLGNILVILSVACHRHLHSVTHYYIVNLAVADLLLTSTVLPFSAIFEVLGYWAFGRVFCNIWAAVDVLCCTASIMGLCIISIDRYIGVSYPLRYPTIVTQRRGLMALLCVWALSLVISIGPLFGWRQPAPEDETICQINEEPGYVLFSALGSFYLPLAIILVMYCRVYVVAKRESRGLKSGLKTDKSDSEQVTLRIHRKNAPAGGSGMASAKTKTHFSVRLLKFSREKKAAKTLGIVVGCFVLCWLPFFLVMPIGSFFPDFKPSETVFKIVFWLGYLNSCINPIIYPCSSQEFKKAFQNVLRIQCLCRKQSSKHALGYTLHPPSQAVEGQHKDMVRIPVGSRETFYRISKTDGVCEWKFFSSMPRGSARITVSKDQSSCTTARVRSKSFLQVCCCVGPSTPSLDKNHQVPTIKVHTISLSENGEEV
Method: as §2, §3

Adrenergic alpha2A = biological target: T3, Adrenergic alpha2A (Homo sapiens, UniProt P08913); assay: SafetyScreen44 203630; assay type: binding; conditions: 10 μM; [3H]Rauwolscine; recombinant
T3 construct: Eurofins-Panlabs (contract screen) 203630
Method: as §2, §3

[6] = test system: GABAA, Flunitrazepam, Central; assay: SafetyScreen44 226600; assay type: binding, rat; conditions: 10 μM; [3H]Flunitrazepam; brain (minus cerebellum)
Method: as §2, §3

Glucocorticoid = biological target: T4, Glucocorticoid (Homo sapiens, UniProt P04150); assay: SafetyScreen44 232030; assay type: binding; conditions: 10 μM; [3H]Dexamethasone; recombinant
T4 construct: Eurofins-Panlabs (contract screen) 232030
T4 sequence (P04150 whole entry): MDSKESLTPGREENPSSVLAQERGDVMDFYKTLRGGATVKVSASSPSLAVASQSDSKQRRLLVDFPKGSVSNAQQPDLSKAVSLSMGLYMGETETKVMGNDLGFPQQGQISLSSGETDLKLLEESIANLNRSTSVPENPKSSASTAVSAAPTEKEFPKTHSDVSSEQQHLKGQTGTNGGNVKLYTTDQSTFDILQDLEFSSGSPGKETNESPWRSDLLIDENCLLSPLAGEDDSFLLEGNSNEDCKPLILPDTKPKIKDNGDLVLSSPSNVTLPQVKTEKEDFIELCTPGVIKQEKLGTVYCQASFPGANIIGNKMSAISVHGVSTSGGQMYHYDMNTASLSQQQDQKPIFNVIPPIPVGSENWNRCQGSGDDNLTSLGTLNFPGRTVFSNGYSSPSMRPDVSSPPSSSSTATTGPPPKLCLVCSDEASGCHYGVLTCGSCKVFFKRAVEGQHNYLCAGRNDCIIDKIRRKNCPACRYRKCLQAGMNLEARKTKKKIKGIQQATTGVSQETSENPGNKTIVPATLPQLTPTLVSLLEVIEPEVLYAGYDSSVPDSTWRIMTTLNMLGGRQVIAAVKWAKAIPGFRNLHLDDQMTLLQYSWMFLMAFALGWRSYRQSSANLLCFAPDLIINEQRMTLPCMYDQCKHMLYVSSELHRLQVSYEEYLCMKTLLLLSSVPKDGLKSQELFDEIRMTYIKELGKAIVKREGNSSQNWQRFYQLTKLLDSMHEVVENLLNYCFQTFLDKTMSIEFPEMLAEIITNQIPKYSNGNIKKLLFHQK
Method: as §2, §3

Muscarinic M1 = biological target: T5, Muscarinic M1 (Homo sapiens, UniProt P11229); assay: SafetyScreen44 252610; assay type: binding; conditions: 10 μM; [3H]N-Methylscopolamine; recombinant
T5 construct: purchased Eurofins-Panlabs (contract screen SafetyScreen44) assay ID 252610
T5 sequence (P11229 whole entry): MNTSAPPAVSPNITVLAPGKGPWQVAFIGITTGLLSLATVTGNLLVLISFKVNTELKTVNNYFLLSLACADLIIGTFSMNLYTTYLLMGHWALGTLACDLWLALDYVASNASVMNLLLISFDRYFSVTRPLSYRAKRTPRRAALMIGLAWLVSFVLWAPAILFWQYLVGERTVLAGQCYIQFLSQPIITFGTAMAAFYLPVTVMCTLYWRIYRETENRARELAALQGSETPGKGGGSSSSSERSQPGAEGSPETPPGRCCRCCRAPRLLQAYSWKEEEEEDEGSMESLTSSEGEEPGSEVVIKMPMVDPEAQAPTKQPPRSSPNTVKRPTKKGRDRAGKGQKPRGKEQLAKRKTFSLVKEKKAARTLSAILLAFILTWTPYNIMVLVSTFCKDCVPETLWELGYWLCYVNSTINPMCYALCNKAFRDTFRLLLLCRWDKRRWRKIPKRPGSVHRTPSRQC
Method: as §2, §3

Opiate kappa (OP2, KOP) = biological target: T6, Opiate kappa (OP2, KOP) (Homo sapiens, UniProt P41145); assay: SafetyScreen44 260210; assay type: binding; conditions: 10 μM; [3H]Diprenorphine; recombinant
T6 construct: purchased Eurofins-Panlabs (contract screen SafetyScreen44) assay ID 260210
T6 sequence (P41145 whole entry): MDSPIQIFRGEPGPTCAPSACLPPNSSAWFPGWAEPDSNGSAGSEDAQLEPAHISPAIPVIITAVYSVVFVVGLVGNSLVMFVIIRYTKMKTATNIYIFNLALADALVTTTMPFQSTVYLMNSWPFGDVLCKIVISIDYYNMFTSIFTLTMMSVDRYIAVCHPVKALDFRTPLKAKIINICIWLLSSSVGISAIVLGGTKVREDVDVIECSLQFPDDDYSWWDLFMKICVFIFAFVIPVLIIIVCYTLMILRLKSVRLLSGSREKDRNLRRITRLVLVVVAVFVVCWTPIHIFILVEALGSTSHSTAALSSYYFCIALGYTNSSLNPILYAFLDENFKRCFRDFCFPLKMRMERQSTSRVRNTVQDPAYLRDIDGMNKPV
Method: as §2, §3

Potassium Channel [KA] = assay: SafetyScreen44 265510; assay type: binding, rat; conditions: 10 μM; [125I]alpha-Dendrotoxin; cerebral cortex
Method: as §2, §3

[7] = biological target: T7, Potassium Channel hERG, [3H]Dofetilide (Homo sapiens, UniProt Q12809); assay: SafetyScreen44 265910; assay type: binding; conditions: 10 μM, recombinant
T7 construct: purchased Eurofins-Panlabs (contract screen SafetyScreen44) assay ID 265910
T7 sequence (Q12809 whole entry): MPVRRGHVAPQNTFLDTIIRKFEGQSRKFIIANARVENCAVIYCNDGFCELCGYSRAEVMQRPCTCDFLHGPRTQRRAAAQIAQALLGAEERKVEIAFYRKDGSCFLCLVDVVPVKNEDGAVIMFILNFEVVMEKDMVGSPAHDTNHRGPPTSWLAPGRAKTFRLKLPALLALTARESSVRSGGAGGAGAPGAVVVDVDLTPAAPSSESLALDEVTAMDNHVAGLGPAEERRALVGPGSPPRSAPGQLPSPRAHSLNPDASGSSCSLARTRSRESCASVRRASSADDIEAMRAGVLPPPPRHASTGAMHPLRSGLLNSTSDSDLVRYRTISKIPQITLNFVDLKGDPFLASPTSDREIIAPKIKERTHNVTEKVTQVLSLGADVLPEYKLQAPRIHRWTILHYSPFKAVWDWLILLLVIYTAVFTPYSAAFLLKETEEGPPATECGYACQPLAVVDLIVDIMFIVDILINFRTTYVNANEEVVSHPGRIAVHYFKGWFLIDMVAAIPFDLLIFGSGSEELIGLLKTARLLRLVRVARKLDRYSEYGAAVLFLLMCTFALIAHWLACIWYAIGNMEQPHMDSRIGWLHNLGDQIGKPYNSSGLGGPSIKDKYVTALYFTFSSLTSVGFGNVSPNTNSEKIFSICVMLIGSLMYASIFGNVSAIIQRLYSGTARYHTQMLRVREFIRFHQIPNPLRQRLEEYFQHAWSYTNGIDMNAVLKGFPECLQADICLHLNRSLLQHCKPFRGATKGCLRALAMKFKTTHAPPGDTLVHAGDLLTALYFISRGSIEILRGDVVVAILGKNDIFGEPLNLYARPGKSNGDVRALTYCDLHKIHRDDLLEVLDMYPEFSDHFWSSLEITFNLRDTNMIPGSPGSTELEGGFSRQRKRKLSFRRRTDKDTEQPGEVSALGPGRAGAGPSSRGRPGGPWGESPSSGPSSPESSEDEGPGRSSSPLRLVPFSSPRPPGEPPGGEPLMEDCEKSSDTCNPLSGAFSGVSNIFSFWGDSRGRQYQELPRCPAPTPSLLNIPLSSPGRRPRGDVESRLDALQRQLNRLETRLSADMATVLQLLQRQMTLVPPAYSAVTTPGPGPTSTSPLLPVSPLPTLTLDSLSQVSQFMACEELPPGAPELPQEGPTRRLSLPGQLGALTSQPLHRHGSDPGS
Method: as §2, §3

[8] = biological target: T8, Serotonin (5-Hydroxytryptamine) 5-HT3 (Homo sapiens, UniProt P46098); assay: SafetyScreen44 271910; assay type: binding; conditions: 10 μM; [3H]GR-65630; recombinant
T8 construct: purchased Eurofins-Panlabs (contract screen SafetyScreen44) assay ID 271910
T8 sequence (P46098 24-478): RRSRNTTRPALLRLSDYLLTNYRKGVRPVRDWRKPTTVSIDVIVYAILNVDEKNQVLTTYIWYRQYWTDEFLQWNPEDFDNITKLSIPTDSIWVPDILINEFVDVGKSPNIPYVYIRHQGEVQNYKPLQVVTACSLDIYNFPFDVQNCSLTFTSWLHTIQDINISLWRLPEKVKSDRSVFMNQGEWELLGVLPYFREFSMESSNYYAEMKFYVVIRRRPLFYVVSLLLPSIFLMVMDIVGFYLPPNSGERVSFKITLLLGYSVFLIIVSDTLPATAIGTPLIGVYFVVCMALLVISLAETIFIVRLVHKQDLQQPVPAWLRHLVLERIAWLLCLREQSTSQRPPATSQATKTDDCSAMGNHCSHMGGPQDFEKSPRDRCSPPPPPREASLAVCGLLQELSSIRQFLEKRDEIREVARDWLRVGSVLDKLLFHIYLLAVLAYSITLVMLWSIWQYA
Method: as §2, §3

hSERT = hSERT (Homo sapiens, UniProt P31645); assay: SERT-mediated cell uptake assay (fluorescence uptake inhibition); assay type: cell-based
Sequence of hSERT (P31645 whole entry): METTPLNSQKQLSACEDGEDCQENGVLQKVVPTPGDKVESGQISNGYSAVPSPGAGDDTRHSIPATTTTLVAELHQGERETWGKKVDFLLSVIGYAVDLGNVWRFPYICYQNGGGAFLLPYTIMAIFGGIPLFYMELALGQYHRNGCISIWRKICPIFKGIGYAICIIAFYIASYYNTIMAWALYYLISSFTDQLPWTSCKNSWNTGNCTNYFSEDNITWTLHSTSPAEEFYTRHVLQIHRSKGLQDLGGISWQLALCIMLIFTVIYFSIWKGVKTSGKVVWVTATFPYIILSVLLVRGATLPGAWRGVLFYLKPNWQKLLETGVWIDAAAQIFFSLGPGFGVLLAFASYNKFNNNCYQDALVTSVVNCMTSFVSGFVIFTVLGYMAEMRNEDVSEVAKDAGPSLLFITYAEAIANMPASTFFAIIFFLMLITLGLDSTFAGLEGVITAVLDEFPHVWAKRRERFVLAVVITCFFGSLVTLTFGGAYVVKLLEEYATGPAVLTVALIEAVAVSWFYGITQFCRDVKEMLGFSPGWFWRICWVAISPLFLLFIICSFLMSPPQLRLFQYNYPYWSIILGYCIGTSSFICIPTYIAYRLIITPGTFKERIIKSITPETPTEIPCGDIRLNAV

rats = conditions: rat, in vivo; cited from earlier work
humans = conditions: in vivo; cited from earlier work

Row | SMILES | Emax (5-HT2B) | entries and time spent in the open arms (mice [1]) | latency to bite the presented food pellets (mice [2]) | clasping duration [3] | hindlimb clasping score [3] | overall locomotory deficits in the open field [4] | % Response [5] | % Response (Adrenergic alpha1A) | % Response (Adrenergic alpha2A) | % Response [6] | % Response (Glucocorticoid) | % Response (Muscarinic M1) | % Response (Opiate kappa (OP2, KOP)) | % Response (Potassium Channel [KA]) | % Response [7] | % Response [8] | IC50 (hSERT) | substitution for MDMA stimulus (rats) | substitution in LSD trained animals (rats) | hallucinogenic effects in humans (humans)
1 | CC[C@@H](N)Cc1cc(OC)c(C)cc1OC [(R)-Ariadne] | 64% | acute anxiogenic-like effect | dose-dependent trend toward reducing latency | down to zero | down to zero | partially rescued |  |  |  |  |  |  |  |  |  |  |  |  |  | 
2 | CCC(N)Cc1cc(OC)c(C)cc1OC (racemic) [Compound 32, 1-(2,5-dimethoxy-4-methylphenyl)butan-2-amine] |  |  |  |  |  |  | 12% | 24% | 34% | −15% | −5% | −4% | 3% | −6% | 18% | −13% | > 50 µM | full substitution | substituted responding | lack the hallucinogenic effects
